Reference: patent US8299048B2, “Hexahydrocyclopentyl[f]indazole sulfonamides and derivatives thereof as selective glucocorticoid receptor modulators” (Merck Sharp & Dohme Corp., priority 2008, dated 2012)
pKi: −log10 of the molar value.

target: T1, glucocorticoid receptor (Homo sapiens, UniProt P04150); assay: Ligand binding assay (GR BIND)
T1 construct: endogenous in cells
T1 sequence (P04150 1-777): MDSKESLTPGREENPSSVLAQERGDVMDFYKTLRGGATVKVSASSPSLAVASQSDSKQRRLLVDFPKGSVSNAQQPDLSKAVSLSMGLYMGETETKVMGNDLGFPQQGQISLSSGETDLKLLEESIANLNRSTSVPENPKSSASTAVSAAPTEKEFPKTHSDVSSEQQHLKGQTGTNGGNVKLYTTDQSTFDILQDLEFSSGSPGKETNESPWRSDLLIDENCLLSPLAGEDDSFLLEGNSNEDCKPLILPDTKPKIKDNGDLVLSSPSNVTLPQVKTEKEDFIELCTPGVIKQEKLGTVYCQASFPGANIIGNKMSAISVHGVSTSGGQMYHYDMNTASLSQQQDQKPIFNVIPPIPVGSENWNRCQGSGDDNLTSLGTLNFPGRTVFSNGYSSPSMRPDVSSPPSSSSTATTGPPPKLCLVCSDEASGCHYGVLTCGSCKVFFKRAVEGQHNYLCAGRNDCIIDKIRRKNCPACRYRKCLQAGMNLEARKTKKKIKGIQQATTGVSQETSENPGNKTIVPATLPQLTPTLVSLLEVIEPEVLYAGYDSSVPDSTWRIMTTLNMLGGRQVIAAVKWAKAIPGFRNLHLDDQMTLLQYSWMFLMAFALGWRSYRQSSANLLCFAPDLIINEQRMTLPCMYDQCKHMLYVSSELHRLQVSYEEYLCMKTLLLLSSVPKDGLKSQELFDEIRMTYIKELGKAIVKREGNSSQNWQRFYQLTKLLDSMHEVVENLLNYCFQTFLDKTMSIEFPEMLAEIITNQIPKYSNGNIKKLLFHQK
Procedure, shortened: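 Cytosol from freeze–thawed cells in TEGM (pH 7.2, 10 mM molybdate) was incubated overnight at 4 °C with compound and [3H]-dexamethasone trace (added as 6 nM solution), 2% EtOH final. Bound ligand was captured on hydroxylapatite, filtered, washed and scintillation counted. Values were calculated with dexamethasone as reference.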

| pKi | SMILES |
| --- | --- |
| 8.70 | C[C@]12Cc3cnn(-c4ccc(F)cc4)c3C=C1CC[C@@H]2CN(CC1CCCO1)S(=O)(=O)c1ccc(C(N)=O)cc1 (stereo partly drawn) [Example 191, 4-{[{[(4αR,5S)-1-(4-fluorophenyl)-4α-methyl-1,4,4α,5,6,7-hexahydrocyclopenta[f]indazol-5-yl]methyl}(tetrahydrofuran-2-ylmethyl)amino]sulfonyl}benzamide] |
| 9.05 | C[C@]12Cc3cnn(-c4ccc(F)cc4)c3C=C1CC[C@@H]2CN(Cc1ccccc1F)S(=O)(=O)c1cccc(C(N)=O)c1 [Example 192, 3-[((2-fluorobenzyl){[(4αR,5S)-1-(4-fluorophenyl)-4α-methyl-1,4,4α,5,6,7-hexahydrocyclopenta[f]indazol-5-yl]methyl}amino)sulfonyl]benzamide] |
| 9.00 | C[C@]12Cc3cnn(-c4ccc(F)cc4)c3C=C1CC[C@@H]2CN(CCCc1ccccc1)S(=O)(=O)CC(F)(F)F [Example 193, 2,2,2-trifluoro-N-{[(4αR,5S)-1-(4-fluorophenyl)-4α-methyl-1,4,4α,5,6,7-hexahydrocyclopenta[f]indazol-5-yl]methyl}-N-(3-phenylpropyl)ethanesulfonamide] |
| 8.82 | Cc1noc(C)c1S(=O)(=O)N(CCCc1ccccc1)C[C@H]1CCC2=Cc3c(cnn3-c3ccc(F)cc3)C[C@@]21C [Example 194, N-{[(4αR,5S)-1-(4-fluorophenyl)-4α-methyl-1,4,4α,5,6,7-hexahydrocyclopenta[f]indazol-5-yl]methyl}-3,5-dimethyl-N-(3-phenylpropyl)isoxazole-4-sulfonamide] |
| 9.22 | C[C@]12Cc3cnn(-c4ccc(F)cc4)c3C=C1CC[C@@H]2CN(CCCc1ccccc1)S(=O)(=O)c1ccccc1F [Example 195, 2-fluoro-N-{[(4αR,5S)-1-(4-fluorophenyl)-4α-methyl-1,4,4α,5,6,7-hexahydrocyclopenta[f]indazol-5-yl]methyl}-N-(3-phenylpropyl)benzenesulfonamide] |
| 8.57 | C[C@]12Cc3cnn(-c4ccc(F)cc4)c3C=C1CC[C@@H]2CN(CCc1ccccn1)S(=O)(=O)Cc1ccccc1C(N)=O [Example 196, 2-({[{[(4αR,5S)-1-(4-fluorophenyl)-4α-methyl-1,4,4α,5,6,7-hexahydrocyclopenta[f]indazol-5-yl]methyl}(2-pyridin-2-ylethyl)amino]sulfonyl}methyl)benzamide] |
| 8.36 | CC([C@H]1CCC2=Cc3c(cnn3-c3ccc(F)cc3)C[C@@]21C)N(CCc1ccccn1)S(=O)(=O)Cc1cccnc1 (stereo partly drawn) [Example 197, N-{1-[(4αR)-1-(4-fluorophenyl)-4α-methyl-1,4,4α,5,6,7-hexahydrocyclopenta[f]indazol-5-yl]ethyl}-1-pyridin-3-yl-N-(2-pyridin-2-ylethyl)methanesulfonamide] |
| 7.84 | C[C@]12Cc3cnn(-c4ccc(F)cc4)c3C=C1CC[C@@H]2CN(CCO)S(=O)(=O)Cc1ccccc1C(N)=O [Example 198, 2-({[{[(4αR,5S)-1-(4-fluorophenyl)-4α-methyl-1,4,4α,5,6,7-hexahydrocyclopenta[f]indazol-5-yl]methyl}(2-hydroxyethyl)amino]sulfonyl}methyl)benzamide] |
| 8.62 | CC(C)(O)CN(C[C@H]1CCC2=Cc3c(cnn3-c3ccc(F)cc3)C[C@@]21C)S(=O)(=O)c1ccccc1F [Example 199, 2-fluoro-N-{[(4αR,5S)-1-(4-fluorophenyl)-4α-methyl-1,4,4α,5,6,7-hexahydrocyclopenta[f]indazol-5-yl]methyl}-N-(2-hydroxy-2-methylpropyl)benzenesulfonamide] |
| 8.74 | C[C@]12Cc3cnn(-c4ccc(F)cc4)c3C=C1CC[C@@H]2CN(CC1(O)CC1)S(=O)(=O)c1ccccc1F [Example 200, 2-fluoro-N-{[(4αR,5S)-1-(4-fluorophenyl)-4α-methyl-1,4,4α,5,6,7-hexahydrocyclopenta[f]indazol-5-yl]methyl}-N-[(1-hydroxycyclopropyl)methyl]benzenesulfonamide] |
| 8.64 | C[C@]12Cc3cnn(-c4ccc(F)cc4)c3C=C1CC[C@@H]2CN(CC1(O)CCCCC1)S(=O)(=O)c1ccccc1F [Example 201, 2-fluoro-N-{[(4αR,5S)-1-(4-fluorophenyl)-4α-methyl-1,4,4α,5,6,7-hexahydrocyclopenta[f]indazol-5-yl]methyl}-N-[(1-hydroxycyclohexyl)methyl]benzenesulfonamide] |
